Results from ChEMBL document CHEMBL5233227, “Allosteric inhibitors of the STAT3 signaling pathway” (Eur J Med Chem, 2020).

Biological target: Signal transducer and activator of transcription 3 (Homo sapiens, UniProt P40763)
Assay: Inhibition of human STAT3 expressed in human HepG2 cells incubated for 1.5 hrs by luciferase assay
Type: cell-based

Signal transducer and activator of transcription 3, sequence (P40763 whole entry): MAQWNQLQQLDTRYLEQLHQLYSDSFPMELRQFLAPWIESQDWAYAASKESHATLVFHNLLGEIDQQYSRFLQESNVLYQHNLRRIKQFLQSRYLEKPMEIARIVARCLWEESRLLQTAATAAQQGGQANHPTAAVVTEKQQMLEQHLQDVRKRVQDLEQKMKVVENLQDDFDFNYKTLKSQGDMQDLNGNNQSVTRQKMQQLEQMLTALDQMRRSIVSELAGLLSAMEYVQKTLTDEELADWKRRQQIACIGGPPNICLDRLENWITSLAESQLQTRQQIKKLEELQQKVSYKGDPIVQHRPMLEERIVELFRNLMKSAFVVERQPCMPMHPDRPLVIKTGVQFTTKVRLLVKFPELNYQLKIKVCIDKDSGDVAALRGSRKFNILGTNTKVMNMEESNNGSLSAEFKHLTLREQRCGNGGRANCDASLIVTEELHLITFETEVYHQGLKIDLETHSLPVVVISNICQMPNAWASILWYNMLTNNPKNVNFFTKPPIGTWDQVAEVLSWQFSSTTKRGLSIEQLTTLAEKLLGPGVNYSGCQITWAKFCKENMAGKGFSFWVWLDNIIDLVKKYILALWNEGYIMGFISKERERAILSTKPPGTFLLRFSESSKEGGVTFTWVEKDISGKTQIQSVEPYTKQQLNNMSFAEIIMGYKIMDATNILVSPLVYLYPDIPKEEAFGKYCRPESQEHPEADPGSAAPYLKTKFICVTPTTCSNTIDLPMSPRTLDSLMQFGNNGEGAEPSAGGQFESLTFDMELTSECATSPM

IC50: 200 nM
Structure (SMILES): CC(CO)C1OC(=O)C=C2C13OC3CC13COC(=O)C1(C)CC(O)CC23C (stereo unspecified)
